Measurements: ChEMBL document CHEMBL4507261, “Data for DCP probe A-192621” (2021)

Assays:
[1] = biological target: Fibroblast growth factor receptor 4 (Homo sapiens) (UniProt P22455); conditions: Compound concentration 1000.0 nM
[2] = biological target: Ephrin type-A receptor 7 (Homo sapiens) (UniProt Q15375); conditions: Compound concentration 1000.0 nM
[3] = biological target: Discoidin domain-containing receptor 2 (Homo sapiens) (UniProt Q16832); conditions: Compound concentration 1000.0 nM
[4] = biological target: Receptor-interacting serine/threonine-protein kinase 1 (Homo sapiens) (UniProt Q13546); conditions: Compound concentration 1000.0 nM
[5] = biological target: Glycogen synthase kinase-3 beta (Homo sapiens) (UniProt P49841); conditions: Compound concentration 1000.0 nM
[6] = biological target: NT-3 growth factor receptor (Homo sapiens) (UniProt Q16288); conditions: Compound concentration 1000.0 nM
[7] = system: Tyrosine-protein kinase ABL1 (Homo sapiens), P00519 [H396P]; conditions: Compound concentration 1000.0 nM
[8] = biological target: Receptor-type tyrosine-protein kinase FLT3 (Homo sapiens) (UniProt P36888); conditions: Compound concentration 1000.0 nM
[9] = biological target: T1, Muscarinic acetylcholine receptor M4 (Homo sapiens) (UniProt P08173); assay: M4 (h) Eurofins-Cerep binding assay; parameters: ligand concentration 0.2 nM; conditions: filed as antagonist, Compound concentration 10.0 uM
T1 sequence (whole entry): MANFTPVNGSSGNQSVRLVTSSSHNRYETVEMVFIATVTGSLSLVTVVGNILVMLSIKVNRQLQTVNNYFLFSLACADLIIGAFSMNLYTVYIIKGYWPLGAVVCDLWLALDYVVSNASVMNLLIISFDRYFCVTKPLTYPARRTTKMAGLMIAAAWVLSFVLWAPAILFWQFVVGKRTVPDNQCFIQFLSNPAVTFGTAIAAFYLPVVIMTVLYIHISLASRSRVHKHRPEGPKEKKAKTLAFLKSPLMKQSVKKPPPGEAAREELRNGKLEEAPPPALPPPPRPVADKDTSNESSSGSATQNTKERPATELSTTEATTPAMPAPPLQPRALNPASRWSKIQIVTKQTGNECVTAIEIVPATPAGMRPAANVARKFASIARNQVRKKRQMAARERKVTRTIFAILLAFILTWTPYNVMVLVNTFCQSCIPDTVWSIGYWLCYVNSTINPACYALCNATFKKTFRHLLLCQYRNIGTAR

[10] = biological target: Tyrosine-protein kinase HCK (Homo sapiens) (UniProt P08631); conditions: Compound concentration 1000.0 nM
[11] = biological target: Tyrosine-protein kinase Lyn (Homo sapiens) (UniProt P07948); conditions: Compound concentration 1000.0 nM
[12] = biological target: Serine/threonine-protein kinase 38 (Homo sapiens) (UniProt Q15208); conditions: Compound concentration 1000.0 nM
[13] = biological target: Ribosomal protein S6 kinase alpha-1 (Homo sapiens) (UniProt Q15418); conditions: Compound concentration 1000.0 nM
[14] = biological target: Transient receptor potential cation channel subfamily M member 6 (Homo sapiens) (UniProt Q9BX84); conditions: Compound concentration 1000.0 nM
[15] = biological target: Homeodomain-interacting protein kinase 1 (Homo sapiens) (UniProt Q86Z02); conditions: Compound concentration 1000.0 nM
[16] = biological target: Insulin-like growth factor 1 receptor (Homo sapiens) (UniProt P08069); conditions: Compound concentration 1000.0 nM
[17] = biological target: MAP kinase-activated protein kinase 2 (Homo sapiens) (UniProt P49137); conditions: Compound concentration 1000.0 nM
[18] = biological target: Mitogen-activated protein kinase kinase kinase 15 (Homo sapiens) (UniProt Q6ZN16); conditions: Compound concentration 1000.0 nM
[19] = biological target: 3-phosphoinositide-dependent protein kinase 1 (Homo sapiens) (UniProt O15530); conditions: Compound concentration 1000.0 nM
[20] = biological target: Tyrosine-protein kinase JAK1 (Homo sapiens) (UniProt P23458); conditions: Compound concentration 1000.0 nM
[21] = biological target: Phosphatidylinositol 4,5-bisphosphate 3-kinase catalytic subunit delta isoform (Homo sapiens) (UniProt O00329); conditions: Compound concentration 1000.0 nM
[22] = biological target: Mitogen-activated protein kinase 1 (Homo sapiens) (UniProt P28482); conditions: Compound concentration 1000.0 nM
[23] = biological target: Ephrin type-B receptor 3 (Homo sapiens) (UniProt P54753); conditions: Compound concentration 1000.0 nM
[24] = biological target: Kappa-type opioid receptor (Homo sapiens) (UniProt P41145); assay: kappa (h) (KOP) Eurofins-Cerep binding assay; parameters: ligand concentration 0.5 nM; conditions: filed as agonist, Compound concentration 10.0 uM
[25] = biological target: Tyrosine-protein kinase receptor Tie-1 (Homo sapiens) (UniProt P35590); conditions: Compound concentration 1000.0 nM
[26] = biological target: Ribosomal protein S6 kinase beta-1 (Homo sapiens) (UniProt P23443); conditions: Compound concentration 1000.0 nM
[27] = biological target: Serine/threonine-protein kinase ULK3 (Homo sapiens) (UniProt Q6PHR2); conditions: Compound concentration 1000.0 nM
[28] = biological target: TGF-beta receptor type-2 (Homo sapiens) (UniProt P37173); conditions: Compound concentration 1000.0 nM
[29] = biological target: Dual specificity mitogen-activated protein kinase kinase 6 (Homo sapiens) (UniProt P52564); conditions: Compound concentration 1000.0 nM
[30] = biological target: Cyclin-dependent kinase 7 (Homo sapiens) (UniProt P50613); conditions: Compound concentration 1000.0 nM
[31] = biological target: Epidermal growth factor receptor (Homo sapiens) (UniProt P00533); conditions: Compound concentration 1000.0 nM
[32] = biological target: Proto-oncogene tyrosine-protein kinase receptor Ret (Homo sapiens) (UniProt P07949); conditions: Compound concentration 1000.0 nM
[33] = biological target: Muscarinic acetylcholine receptor M3 (Homo sapiens) (UniProt P20309); assay: M3 (h) Eurofins-Cerep binding assay; parameters: ligand concentration 0.2 nM; conditions: filed as antagonist, Compound concentration 10.0 uM
[34] = biological target: Serine/threonine-protein kinase TAO1 (Homo sapiens) (UniProt Q7L7X3); conditions: Compound concentration 1000.0 nM
[35] = biological target: Estrogen receptor (Homo sapiens) (UniProt P03372); assay: Estrogen ER alpha (h) Eurofins-Cerep binding assay; parameters: ligand concentration 0.5 nM; conditions: filed as agonist, Compound concentration 10.0 uM
[36] = biological target: Tyrosine-protein kinase Fyn (Homo sapiens) (UniProt P06241); conditions: Compound concentration 1000.0 nM
[37] = biological target: Tyrosine-protein kinase JAK2 (Homo sapiens) (UniProt O60674); conditions: Compound concentration 1000.0 nM
[38] = biological target: Mitogen-activated protein kinase kinase kinase 11 (Homo sapiens) (UniProt Q16584); conditions: Compound concentration 1000.0 nM
[39] = biological target: Mitogen-activated protein kinase kinase kinase 20 (Homo sapiens) (UniProt Q9NYL2); conditions: Compound concentration 1000.0 nM

Chain of Fibroblast growth factor receptor 4 (Homo sapiens) (P22455 22-802 limits assumed): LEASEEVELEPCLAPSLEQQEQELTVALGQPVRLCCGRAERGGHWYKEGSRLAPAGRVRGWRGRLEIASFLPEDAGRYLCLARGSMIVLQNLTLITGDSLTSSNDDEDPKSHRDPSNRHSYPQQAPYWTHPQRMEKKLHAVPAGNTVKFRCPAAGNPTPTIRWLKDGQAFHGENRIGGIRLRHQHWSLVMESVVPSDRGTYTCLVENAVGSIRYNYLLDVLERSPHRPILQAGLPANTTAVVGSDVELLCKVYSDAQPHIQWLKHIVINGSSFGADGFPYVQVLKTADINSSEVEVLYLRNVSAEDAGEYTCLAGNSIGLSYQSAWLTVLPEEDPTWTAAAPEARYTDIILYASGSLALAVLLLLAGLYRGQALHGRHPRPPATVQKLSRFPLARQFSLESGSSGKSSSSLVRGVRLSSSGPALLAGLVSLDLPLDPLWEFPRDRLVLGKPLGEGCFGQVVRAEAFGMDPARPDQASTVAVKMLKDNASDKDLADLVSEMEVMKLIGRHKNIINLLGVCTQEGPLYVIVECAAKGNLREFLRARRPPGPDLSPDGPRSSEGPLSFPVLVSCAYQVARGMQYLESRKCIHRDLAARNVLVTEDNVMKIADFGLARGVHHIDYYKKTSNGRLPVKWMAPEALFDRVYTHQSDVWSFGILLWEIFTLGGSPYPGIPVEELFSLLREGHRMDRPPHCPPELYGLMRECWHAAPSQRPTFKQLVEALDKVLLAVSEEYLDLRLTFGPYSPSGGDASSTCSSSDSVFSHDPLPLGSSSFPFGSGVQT
Chain of Ephrin type-B receptor 3 (Homo sapiens) (P54753 whole entry): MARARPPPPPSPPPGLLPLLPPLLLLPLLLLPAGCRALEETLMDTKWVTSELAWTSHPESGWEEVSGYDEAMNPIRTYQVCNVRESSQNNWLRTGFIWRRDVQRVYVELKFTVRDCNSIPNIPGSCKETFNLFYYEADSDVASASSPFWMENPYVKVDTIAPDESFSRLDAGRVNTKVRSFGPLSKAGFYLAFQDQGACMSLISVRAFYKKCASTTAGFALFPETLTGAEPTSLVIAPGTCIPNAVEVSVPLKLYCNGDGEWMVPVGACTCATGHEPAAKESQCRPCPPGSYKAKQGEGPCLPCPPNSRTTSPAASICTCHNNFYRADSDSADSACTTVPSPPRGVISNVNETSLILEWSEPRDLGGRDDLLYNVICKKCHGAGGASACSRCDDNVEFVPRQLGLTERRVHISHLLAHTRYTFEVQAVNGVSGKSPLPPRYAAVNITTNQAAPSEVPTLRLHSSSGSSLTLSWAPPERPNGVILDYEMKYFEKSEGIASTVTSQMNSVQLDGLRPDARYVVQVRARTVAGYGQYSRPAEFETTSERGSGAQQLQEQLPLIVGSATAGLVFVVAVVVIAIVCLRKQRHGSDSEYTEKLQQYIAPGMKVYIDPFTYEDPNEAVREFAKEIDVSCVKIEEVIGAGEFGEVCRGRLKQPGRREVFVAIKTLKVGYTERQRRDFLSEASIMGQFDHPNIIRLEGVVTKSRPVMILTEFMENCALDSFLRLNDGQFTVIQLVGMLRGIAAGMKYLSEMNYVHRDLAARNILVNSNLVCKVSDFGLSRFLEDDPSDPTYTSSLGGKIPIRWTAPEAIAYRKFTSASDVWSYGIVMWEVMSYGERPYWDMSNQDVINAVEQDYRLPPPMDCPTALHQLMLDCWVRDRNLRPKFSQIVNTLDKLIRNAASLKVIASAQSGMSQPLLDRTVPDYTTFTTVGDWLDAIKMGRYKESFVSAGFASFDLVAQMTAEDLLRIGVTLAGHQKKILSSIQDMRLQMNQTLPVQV
Chain of Ribosomal protein S6 kinase beta-1 (Homo sapiens) (P23443 whole entry, looked up): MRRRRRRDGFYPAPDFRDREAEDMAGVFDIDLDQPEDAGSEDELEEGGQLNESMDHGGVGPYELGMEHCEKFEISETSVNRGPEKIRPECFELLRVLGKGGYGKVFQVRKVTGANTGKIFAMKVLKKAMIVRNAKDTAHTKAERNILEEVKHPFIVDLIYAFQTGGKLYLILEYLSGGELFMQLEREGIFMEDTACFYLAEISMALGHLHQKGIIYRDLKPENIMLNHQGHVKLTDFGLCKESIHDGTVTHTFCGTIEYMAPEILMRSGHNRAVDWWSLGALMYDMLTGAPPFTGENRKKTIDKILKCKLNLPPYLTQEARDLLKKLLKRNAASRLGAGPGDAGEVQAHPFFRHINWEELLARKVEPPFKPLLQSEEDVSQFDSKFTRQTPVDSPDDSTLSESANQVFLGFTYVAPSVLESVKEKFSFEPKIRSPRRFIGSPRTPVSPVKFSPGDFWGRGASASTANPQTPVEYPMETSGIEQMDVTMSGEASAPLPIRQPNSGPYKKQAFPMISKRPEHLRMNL
Chain of Estrogen receptor (Homo sapiens) (P03372 whole entry): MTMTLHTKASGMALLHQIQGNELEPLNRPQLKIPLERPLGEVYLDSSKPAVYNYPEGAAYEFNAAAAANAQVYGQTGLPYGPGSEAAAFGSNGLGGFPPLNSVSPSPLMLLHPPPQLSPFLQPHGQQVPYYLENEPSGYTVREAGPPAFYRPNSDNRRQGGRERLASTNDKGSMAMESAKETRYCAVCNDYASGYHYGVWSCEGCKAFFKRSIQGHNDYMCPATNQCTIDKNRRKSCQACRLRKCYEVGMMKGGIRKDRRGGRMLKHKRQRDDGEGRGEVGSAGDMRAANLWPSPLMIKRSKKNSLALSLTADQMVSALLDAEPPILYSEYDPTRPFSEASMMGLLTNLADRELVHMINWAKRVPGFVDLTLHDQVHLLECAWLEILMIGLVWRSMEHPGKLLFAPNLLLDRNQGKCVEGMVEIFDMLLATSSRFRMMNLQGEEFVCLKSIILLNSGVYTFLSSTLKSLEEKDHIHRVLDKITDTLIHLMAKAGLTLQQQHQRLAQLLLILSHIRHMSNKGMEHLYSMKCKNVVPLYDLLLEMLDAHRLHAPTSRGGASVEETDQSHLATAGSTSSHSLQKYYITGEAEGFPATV
Chain of Tyrosine-protein kinase receptor Tie-1 (Homo sapiens) (P35590 whole entry): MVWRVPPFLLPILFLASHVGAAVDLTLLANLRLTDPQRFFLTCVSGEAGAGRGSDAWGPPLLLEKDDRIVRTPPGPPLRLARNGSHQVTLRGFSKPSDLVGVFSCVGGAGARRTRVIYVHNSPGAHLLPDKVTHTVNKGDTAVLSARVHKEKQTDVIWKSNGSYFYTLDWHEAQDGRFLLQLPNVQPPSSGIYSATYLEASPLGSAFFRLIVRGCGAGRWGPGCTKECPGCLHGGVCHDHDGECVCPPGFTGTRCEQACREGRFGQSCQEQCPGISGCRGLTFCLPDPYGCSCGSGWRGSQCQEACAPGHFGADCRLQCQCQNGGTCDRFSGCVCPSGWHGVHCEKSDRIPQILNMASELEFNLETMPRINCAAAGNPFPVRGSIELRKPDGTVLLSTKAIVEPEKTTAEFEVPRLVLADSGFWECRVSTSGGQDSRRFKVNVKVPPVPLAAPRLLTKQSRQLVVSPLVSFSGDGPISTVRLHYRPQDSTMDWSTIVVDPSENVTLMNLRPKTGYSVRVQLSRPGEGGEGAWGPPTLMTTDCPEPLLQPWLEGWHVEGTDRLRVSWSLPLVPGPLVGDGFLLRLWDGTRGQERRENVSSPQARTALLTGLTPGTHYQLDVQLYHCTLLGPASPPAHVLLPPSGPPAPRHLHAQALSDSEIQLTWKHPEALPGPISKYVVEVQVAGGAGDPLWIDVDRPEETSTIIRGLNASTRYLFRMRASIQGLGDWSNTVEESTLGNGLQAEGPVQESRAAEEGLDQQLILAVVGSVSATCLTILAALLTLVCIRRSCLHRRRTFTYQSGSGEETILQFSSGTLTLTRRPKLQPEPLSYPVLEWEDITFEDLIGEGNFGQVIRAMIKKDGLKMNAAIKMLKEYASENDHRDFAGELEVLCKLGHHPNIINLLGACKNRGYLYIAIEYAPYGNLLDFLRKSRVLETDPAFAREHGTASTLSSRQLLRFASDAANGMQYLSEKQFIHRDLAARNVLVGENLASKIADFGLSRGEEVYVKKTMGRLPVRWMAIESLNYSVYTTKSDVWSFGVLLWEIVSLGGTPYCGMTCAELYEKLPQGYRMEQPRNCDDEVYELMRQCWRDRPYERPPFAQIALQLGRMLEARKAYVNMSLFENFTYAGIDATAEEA
Chain of Glycogen synthase kinase-3 beta (Homo sapiens) (P49841 whole entry, looked up): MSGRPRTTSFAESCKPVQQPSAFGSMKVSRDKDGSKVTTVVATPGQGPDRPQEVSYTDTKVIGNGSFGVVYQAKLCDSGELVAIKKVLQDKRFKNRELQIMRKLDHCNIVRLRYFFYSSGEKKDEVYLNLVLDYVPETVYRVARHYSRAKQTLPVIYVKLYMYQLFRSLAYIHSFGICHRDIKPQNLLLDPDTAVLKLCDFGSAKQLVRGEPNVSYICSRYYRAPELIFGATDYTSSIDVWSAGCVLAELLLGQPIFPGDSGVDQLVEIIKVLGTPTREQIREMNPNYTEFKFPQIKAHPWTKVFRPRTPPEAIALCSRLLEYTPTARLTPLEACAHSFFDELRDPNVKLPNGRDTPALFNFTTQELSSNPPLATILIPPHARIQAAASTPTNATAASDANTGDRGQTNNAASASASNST
Chain of Serine/threonine-protein kinase ULK3 (Homo sapiens) (Q6PHR2 whole entry): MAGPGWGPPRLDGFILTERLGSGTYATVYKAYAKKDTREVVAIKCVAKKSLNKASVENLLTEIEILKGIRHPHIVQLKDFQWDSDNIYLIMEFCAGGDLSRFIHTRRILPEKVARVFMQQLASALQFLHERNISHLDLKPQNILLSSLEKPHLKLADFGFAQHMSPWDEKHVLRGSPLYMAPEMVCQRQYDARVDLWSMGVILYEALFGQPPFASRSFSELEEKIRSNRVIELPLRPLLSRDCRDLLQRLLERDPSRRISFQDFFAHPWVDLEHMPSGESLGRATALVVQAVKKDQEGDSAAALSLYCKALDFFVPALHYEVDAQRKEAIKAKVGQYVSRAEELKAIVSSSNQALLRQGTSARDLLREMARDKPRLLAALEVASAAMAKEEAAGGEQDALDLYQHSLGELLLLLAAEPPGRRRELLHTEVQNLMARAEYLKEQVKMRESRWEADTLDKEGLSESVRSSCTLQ

| Compound | residual activity [1] [%] | residual activity [2] [%] | residual activity [3] [%] | residual activity [4] [%] | residual activity [5] [%] | residual activity [6] [%] | residual activity [7] [%] | residual activity [8] [%] | % Inhibition of Control Specific Binding (Mean n=2) [9] [%] | residual activity [10] [%] | residual activity [11] [%] | residual activity [12] [%] | residual activity [13] [%] | residual activity [14] [%] | residual activity [15] [%] | residual activity [16] [%] | residual activity [17] [%] | residual activity [18] [%] | residual activity [19] [%] | residual activity [20] [%] | other results |
| --- | --- | --- | --- | --- | --- | --- | --- | --- | --- | --- | --- | --- | --- | --- | --- | --- | --- | --- | --- | --- | --- |
| CCCOc1ccc([C@H]2[C@H](C(=O)O)[C@@H](c3ccc4c(c3)OCO4)CN2CC(=O)Nc2c(CC)cccc2CC)cc1 [A-192621] | 87 | 98 | 71 | 88 | 73 | 71 | 81 | 87 | -2 | 92 | 90 | 77 | 87 | 94 | 75 | 89 | 100 | 73 | 100 | 94 | residual activity [21]: 75%; residual activity [22]: 100%; residual activity [23]: 97%; % Inhibition of Control Specific Binding (Mean n=2) [24]: 31.9%; residual activity [25]: 94%; residual activity [26]: 76%; residual activity [27]: 72%; residual activity [28]: 95%; residual activity [29]: 100%; residual activity [30]: 78%; residual activity [31]: 100%; residual activity [32]: 86%; % Inhibition of Control Specific Binding (Mean n=2) [33]: -11.3%; residual activity [34]: 84%; % Inhibition of Control Specific Binding (Mean n=2) [35]: -1.1%; residual activity [36]: 100%; residual activity [37]: 53%; residual activity [38]: 100%; residual activity [39]: 90% |
| CCCOc1ccc([C@@H]2[C@@H](C(=O)O)[C@H](c3ccc4c(c3)OCO4)CN2CC(=O)Nc2c(CC)cccc2CC)cc1 [A-1806262] | 93 | 92 | 74 | 55 | 100 | 91 | 90 | 100 | -1.8 | 92 | 96 | 83 | 100 | 77 | 79 | 88 | 100 | 99 | 100 | 88 | residual activity [21]: 90%; residual activity [22]: 100%; residual activity [23]: 96%; % Inhibition of Control Specific Binding (Mean n=2) [24]: 54.1%; residual activity [25]: 96%; residual activity [26]: 79%; residual activity [27]: 83%; residual activity [28]: 96%; residual activity [29]: 100%; residual activity [30]: 86%; residual activity [31]: 87%; residual activity [32]: 97%; % Inhibition of Control Specific Binding (Mean n=2) [33]: -0.6%; residual activity [34]: 100%; % Inhibition of Control Specific Binding (Mean n=2) [35]: -0.8%; residual activity [36]: 87%; residual activity [37]: 79%; residual activity [38]: 100%; residual activity [39]: 100% |
